US11459339B2, “Biaryl derivative, preparation method thereof and pharmaceutical application thereof” (Abbisko Therapeutics Co., Ltd., priority 2018, dated 2022)

Columns and labels:
[1] = molecular target: interaction between PD-1 and PD-L1 (Homo sapiens (Human), UniProt Q9NZQ7); assay: PD1-PDL1 HTRF binding activity test (Cisbio PD-1/PD-L1 binding assay kit); conditions: read-out: PD1-PDL1 HTRF Binding Activity IC50
Procedure: A. PD1-PDL1 HTRF Binding Activity Test
The effect of compounds and positive compounds of the examples of the present invention on the interaction between PD-1 and PD-L1 was determined by the PD-1/PD-L1 binding assay kit from Cisbio (#64ICP01PEG or 64ICP01PEH). The detailed experimental process was as follows:
1. Pre-diluted compound solution, 4 μL of Tag1-PD-L1 and 4 μL of Tag2-PD1 were added to each well of a 384-well plate;
3. After incubated for 2 hrs at room temperature or overnight at 4° C., plates were read on Envision of Pelkin Elmer; and readings at 665 nm and 620 nm were recorded, and the ratio of the two readings was taken as a reading for each well;
4. The reading of each well after compound treatment was compared with the reading of DMSO treated wells to obtain the percent inhibition of the compound; and
5. IC50 values of compounds and positive compounds of the examples of the present invention were determined by non-linear regression analysis of percent inhibition at different compound concentrations.

[2] = molecular target: interaction between PD-1 and PD-L1 expressed on cell surfaces (Homo sapiens (Human), UniProt Q9NZQ7); assay: Jurkat reporter gene cellular assay (Jurkat/NF-κB-luc/PD1 cells cocultured with Raji-PD-L1 cells, OKT-3 stimulation); type: cell-based; conditions: NF-κB-luc reporter activation fold, 6 hrs; read-out: Cell Activity EC50
Procedure: B. Jurkat Reporter Gene Cellular Assay
The effect of compounds of the examples of the present invention and positive compounds on the interaction between PD-1 and PD-L1 expressed on cell surfaces, and the related influence on T cell functions, were determined by a Jurkat reporter gene cellular assay.
Briefly, the reporter gene plasmid of NF-κB-luc and the plasmid of human PD-1 were transfected into Jurkat cells to establish a stably transfected cell line capable of stably expressing both PD-1 and NF-κB-Luc reporter genes; the expression level of PD-1 on the cell surface was confirmed by flow cytometry: and the expression of the reporter gene was confirmed via the response of the reporter gene stimulated by OKT-3 and Raiji cells.
In addition, the plasmid of human PD-L1 was transfected into Raji cells to obtain a cell line capable of stably expressing PD-L1. Jurkat/NF-κB-luc/PD1 cells and Raji-PD-L1 cells were then cocultured and stimulated with OKT-3. On this basis, the compounds were added, and the enhancement of the signal pathway of T cell activation by the inhibitory effect of the compounds on the interaction between PD-1 and PD-L1 was evaluated by readings of reporter gene responses. The specific experimental process was as follows:
2. 20 μL of Raji-PD-L1 cell suspension was added to each well with 5*10^4 cells for each well, and was incubated in an incubator for 20 min;
3. 20 μL of Jurkat/NF-κb-luc/PD-1 cell suspension was added to each well with 5*10^4 cells for each well, and well mixed, and 6 hrs later, Bright-glo (Promega, E2620) was applied and plates were read on Envision;
4. the reading of each well treated with the compound was compared with the reading of each well treated with DMSO to obtain the activation fold of the compound; and
5. EC50 values of compounds and positive compounds of the examples of the present invention were determined by non-linear regression analysis of activation folds at different compound concentrations.

Sequence of interaction between PD-1 and PD-L1 (Q9NZQ7 19-238): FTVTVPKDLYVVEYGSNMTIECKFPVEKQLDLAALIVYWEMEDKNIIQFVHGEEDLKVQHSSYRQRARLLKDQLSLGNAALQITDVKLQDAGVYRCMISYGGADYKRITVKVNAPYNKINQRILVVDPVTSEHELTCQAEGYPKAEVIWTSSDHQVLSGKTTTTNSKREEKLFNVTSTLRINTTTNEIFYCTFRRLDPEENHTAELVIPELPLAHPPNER
Sequence of interaction between PD-1 and PD-L1 expressed on cell surfaces (Q9NZQ7 19-290): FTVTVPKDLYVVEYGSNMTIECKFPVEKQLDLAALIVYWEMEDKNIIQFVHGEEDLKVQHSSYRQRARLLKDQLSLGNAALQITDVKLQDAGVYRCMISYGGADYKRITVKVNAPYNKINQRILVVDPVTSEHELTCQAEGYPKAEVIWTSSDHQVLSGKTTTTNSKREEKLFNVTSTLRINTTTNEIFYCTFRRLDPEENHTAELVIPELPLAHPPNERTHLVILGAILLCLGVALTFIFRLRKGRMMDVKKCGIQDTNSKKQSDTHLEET

| Compound | IC50 [1] [nM] | EC50 [2] [nM] |
| --- | --- | --- |
| COC(=O)[C@H]1CCCCN1Cc1cnc(C(=O)Nc2cccc(-c3cccc(NC(=O)c4cc(C)c(CN5CCCC[C@@H]5C(=O)OC)cn4)c3C)c2C)cc1C [Example 28, dimethyl 1,1′-(((((2,2′-dimethyl-[1,1′-biphenyl]-3,3′-diyl)bis (azanediyl))bis(carbonyl))bis (4-methylpyridine-6,3-diyl))bis(methylene))(2R,2′R)-bis (piperidine-2-carboxylate)] | 9.55 | > 10000 |
| Cc1cc(C(=O)Nc2cccc(-c3cccc(NC(=O)c4cc(C)c(CN5CCCC[C@@H]5C(=O)O)cn4)c3C)c2C)ncc1CN1CCCC[C@@H]1C(=O)O [Example 29, (2R,2′R)-1,1′-(((((2,2′-dimethyl-[1,1′-biphenyl]-3,3′-diyl)bis (azanediyl))bis(carbonyl))bis (4-methylpyridine-6,3-diyl))bis(methylene))bis(piperidine-2-carboxylic acid)] | 0.36 | 1460 |
| Cc1cc(C(=O)Nc2cccc(-c3cccc(NC(=O)c4cc(C)c(CN[C@H](CCO)C(=O)O)cn4)c3C)c2C)ncc1CN[C@H](CCO)C(=O)O [Example 30, (2R,2′R)-2,2′-((((((2,2′-dimethyl-[1,1′-biphenyl]-3,3′-diyl)bis(azanediyl))bis(carbonyl))bis(4-methylpyridine-6,3-diyl))bis(methylene))bis(azanediyl)) bis(4-hydroxybutanoic acid)] | 1.24 | 448 |
| COc1cc(C(=O)Nc2cccc(-c3cccc(NC(=O)c4cc(OC)c(CN5CCOCC5)cn4)c3C)c2C)ncc1CN1CCOCC1 [Example 31, N,N′-(2,2′-dimethyl-[1,1′-biphenyl]-3,3′-diyl)bis(4-methoxy-5-(morpholinomethyl)picolinamide)] | 1 | 2080 |
| CNCc1cnc(C(=O)Nc2cccc(-c3cccc(NC(=O)c4cc(OC)c(CNC)cn4)c3C)c2C)cc1OC [Example 32, N,N'-(2,2′-dimethyl-[1,1′-biphenyl]-3,3′-diyl)bis(4-methoxy-5-((methylamino)methyl)picolinamide)] | 0.27 | 53 |
| COc1cc(C(=O)Nc2cccc(-c3cccc(NC(=O)c4cc(OC)c(CNC[C@H](O)CO)cn4)c3C)c2C)ncc1CNC[C@H](O)CO [Example 33, N,N'-(2,2′-dimethyl-[1,1′-biphenyl]-3,3′-diyl)(5((((S)-2,3-dihydroxypropyl)amino)methyl)-4-methoxypicolinamide)] | 0.65 | 109 |
| COCCNCc1cnc(C(=O)Nc2cccc(-c3cccc(NC(=O)c4cc(OC)c(CNCCOC)cn4)c3C)c2C)cc1OC [Example 34, N,N'-(2,2′-dimethyl-[1,1′-biphenyl]-3,3′-diyl)bis(4-methoxy-5-(((2-methoxyethyl)amino)methyl)picolinamide)] | 0.21 | 111 |
| COc1cc(C(=O)Nc2cccc(-c3cccc(NC(=O)c4cc(OC)c(CNCCOC(F)F)cn4)c3C)c2C)ncc1CNCCOC(F)F [Example 35, N,N'-(2,2′-dimethyl-[1,1′-biphenyl]-3,3′-diyl)bis(5-(((2-(difluoromethoxy)ethyl)amino)methyl)-4-methoxypicolinamide)] | 1.11 | 257 |
| COCCN(C)Cc1cnc(C(=O)Nc2cccc(-c3cccc(NC(=O)c4cc(OC)c(CN(C)CCOC)cn4)c3C)c2C)cc1OC [Example 36, N,N'-(2,2′-dimethyl-[1,1′-biphenyl]-3,3′-diyl)bis(4-methoxy-5-(((2-methoxyethyl)(methyl)amino)methyl)picolinamide)] | 0.74 | 456 |
| COc1cc(C(=O)Nc2cccc(-c3cccc(NC(=O)c4cc(OC)c(CN(C)CCO)cn4)c3C)c2C)ncc1CN(C)CCO [Example 37, N,N'-(2,2′-dimethyl-[1,1′-biphenyl]-3,3′-diyl)bis(5-(((2-hydroxyethyl) (methyl)amino)methyl)-4-methoxypicolinamide)] | 0.04 | 118 |
| COc1cc(C(=O)Nc2cccc(-c3cccc(NC(=O)c4cc(OC)c(CNCCOC(C)=O)cn4)c3C)c2C)ncc1CNCCOC(C)=O [Example 38, ((((((2,2′-dimethyl-[1,1′-biphenyl]-3,3′-diyl)bis(azanediyl))bis (carbonyl))bis(4-methoxypyridine-6,3-diyl))bis(methylene))bis (azanediyl))bis(ethane-2,1-diyl) diacetate] | 0.83 | 7000 |
| COc1cc(C(=O)Nc2cccc(-c3cccc(NC(=O)c4cc(OC)c(CNCCNC(C)=O)cn4)c3C)c2C)ncc1CNCCNC(C)=O [Example 39, N,N′-(2,2′-dimethyl-[1,1′-biphenyl]-3,3′-diyl)bis(5-(((2-acetamidoethyl)amino)methyl)-4-methoxypicolinamide)] | 0.86 | 225 |
| COc1cc(C(=O)Nc2cccc(-c3cccc(NC(=O)c4cc(OC)c(CNCC(C)(C)O)cn4)c3C)c2C)ncc1CNCC(C)(C)O [Example 40, N,N'-(2,2′-dimethyl-[1,1′-biphenyl]-3,3′-diyl)bis(5-(((2-hydroxy-2-methylpropyl)amino)methyl)-4-methoxypicolinamide)] | 0.29 | 172 |
| COc1cc(C(=O)Nc2cccc(-c3cccc(NC(=O)c4cc(OC)c(CNCC5(O)CC5)cn4)c3C)c2C)ncc1CNCC1(O)CC1 [Example 41, N,N'-(2,2′-dimethyl-[1,1′-biphenyl]-3,3′-diyl)bis(5-((((1-hydroxycyclopropyl)methyl)amino)methyl)-4-methoxypicolinamide)] | 0.032 | 74 |
| COc1cc(C(=O)Nc2cccc(-c3cccc(NC(=O)c4cc(OC)c(CN[C@H](C)CO)cn4)c3C)c2C)ncc1CN[C@H](C)CO [Example 42, N,N'-(2,2′-dimethyl-[1,1′-biphenyl]-3,3′-diyl)bis(5-((((R)-1-hydroxypropan-2-yl)amino)methyl)-4-methoxypicolinamide)] | 0.28 | 60 |
| COc1cc(C(=O)Nc2cccc(-c3cccc(NC(=O)c4cc(OC)c(CN[C@@H](C)CO)cn4)c3C)c2C)ncc1CN[C@@H](C)CO [Example 43, N,N'-(2,2′-dimethyl-[1,1′-biphenyl]-3,3′-diyl)bis(5-((((S)-1-hydroxypropan-2-yl)amino)methyl)-4-methoxypicolinamide)] | 0.29 | 11 |
| COc1cc(C(=O)Nc2cccc(-c3cccc(NC(=O)c4cc(OC)c(CN[C@H]5CCC[C@@H]5O)cn4)c3C)c2C)ncc1CN[C@H]1CCC[C@@H]1O [Example 44, N,N'-(2,2′-dimethyl-[1,1′-biphenyl]-3,3′-diyl)bis(5-((((1S,2S)-2-hydroxycyclopentyl)amino)methyl)-4-methoxypicolinamide)] | 0.24 | 55 |
| COc1cc(C(=O)Nc2cccc(-c3cccc(NC(=O)c4cc(OC)c(CN5CC(O)C5)cn4)c3C)c2C)ncc1CN1CC(O)C1 [Example 45, N,N'-(2,2′-dimethyl-[1,1′-biphenyl]-3,3′-diyl)bis(5-((3-hydroxyazetidin-l-yl)methyl)-4-methoxypicolinamide)] | 0.22 | 41 |
| COc1cc(C(=O)Nc2cccc(-c3cccc(NC(=O)c4cc(OC)c(CN5CC[C@@H](O)C5)cn4)c3C)c2C)ncc1CN1CC[C@@H](O)C1 [Example 47, N,N'-(2,2′-dimethyl-[1,1′-biphenyl]-3,3′-diyl)bis(5-(((R)-3-hydroxypyrrolidin-1-yl)methyl)-4-methoxypicolinamide)] | 0.27 | 46 |
